Values joined by “and” are separate entries in the source; they are usually repeats but may differ in a detail not shown here. Equal values may be shown once. Read-outs that look alike come from different tables or passages of the source. No end group written: not given here. *: point of attachment. AMC = Cc1cc(=O)oc2cc(N*)ccc12
Experiments:
[1] = target: T1, PsApaH (4) (Pseudomonas sp. M30-35, UniProt A0A1Y0KY79); assay: Acetyl-polyamine deacetylase assay; assay type: biochemical; conditions: single samples (replicates)
Target sequence in this assay (A0A1Y0KY79 1-342 limits assumed): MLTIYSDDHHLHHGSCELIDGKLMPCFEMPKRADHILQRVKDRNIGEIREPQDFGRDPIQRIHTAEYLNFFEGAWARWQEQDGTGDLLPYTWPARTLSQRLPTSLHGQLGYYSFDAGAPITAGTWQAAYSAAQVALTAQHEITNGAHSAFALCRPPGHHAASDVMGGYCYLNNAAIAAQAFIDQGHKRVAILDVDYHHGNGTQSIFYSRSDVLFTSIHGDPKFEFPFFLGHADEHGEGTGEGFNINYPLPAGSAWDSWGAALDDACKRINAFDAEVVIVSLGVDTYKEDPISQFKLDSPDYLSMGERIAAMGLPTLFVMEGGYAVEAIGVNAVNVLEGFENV

[2] = target: PA1409 (Pseudomonas aeruginosa, UniProt Q9I3T5); assay: Acetyl-polyamine deacetylase assay (positive control); assay type: biochemical; conditions: sheet Figure 2d
Sequence of PA1409 (Q9I3T5 whole entry): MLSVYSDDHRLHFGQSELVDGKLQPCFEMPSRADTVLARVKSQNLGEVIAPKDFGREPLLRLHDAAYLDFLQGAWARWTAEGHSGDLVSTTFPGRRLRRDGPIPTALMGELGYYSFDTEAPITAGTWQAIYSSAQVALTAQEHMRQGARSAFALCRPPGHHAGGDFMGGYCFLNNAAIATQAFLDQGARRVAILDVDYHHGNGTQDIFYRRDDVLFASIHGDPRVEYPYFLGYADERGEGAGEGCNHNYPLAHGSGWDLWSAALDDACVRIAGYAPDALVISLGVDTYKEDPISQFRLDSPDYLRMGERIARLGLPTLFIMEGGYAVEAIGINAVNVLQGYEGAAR

[3] = test system: VsHdaH (1b); assay type: biochemical, Vibrio sp.; conditions: VsHdaH (1b) 3µM; single samples (replicates)
[4] = test system: RsPrpH (1b); assay: Acetyl-polyamine deacetylase assay; assay type: biochemical, Rhizorhabdus sp.; conditions: RsPrpH 3µM; single samples (replicates)
[5] = target: T2, RwDmhA (1b) (Rhizorhabdus wittichii, UniProt A0A067XIQ6); assay type: biochemical; conditions: RwDmhA (1b) 3µM; single samples (replicates)
Target sequence in this assay (A0A067XIQ6 1-369): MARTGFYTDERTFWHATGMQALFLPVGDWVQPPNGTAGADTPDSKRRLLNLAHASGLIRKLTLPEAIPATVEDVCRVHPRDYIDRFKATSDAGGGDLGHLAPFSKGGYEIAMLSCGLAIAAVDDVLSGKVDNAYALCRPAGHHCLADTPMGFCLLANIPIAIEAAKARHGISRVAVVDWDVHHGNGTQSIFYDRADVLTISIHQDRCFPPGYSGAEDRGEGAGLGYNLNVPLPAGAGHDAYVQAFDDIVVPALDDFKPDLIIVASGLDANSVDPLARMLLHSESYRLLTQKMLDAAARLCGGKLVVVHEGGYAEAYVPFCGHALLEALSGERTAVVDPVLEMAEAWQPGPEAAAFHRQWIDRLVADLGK

[6] = target: T3, KpHdaH (1b) (Klebsiella pneumoniae, UniProt A0A377Z5F6); assay type: biochemical; conditions: KpKDAC (1b); single samples (replicates)
Target sequence in this assay (A0A377Z5F6 1-371): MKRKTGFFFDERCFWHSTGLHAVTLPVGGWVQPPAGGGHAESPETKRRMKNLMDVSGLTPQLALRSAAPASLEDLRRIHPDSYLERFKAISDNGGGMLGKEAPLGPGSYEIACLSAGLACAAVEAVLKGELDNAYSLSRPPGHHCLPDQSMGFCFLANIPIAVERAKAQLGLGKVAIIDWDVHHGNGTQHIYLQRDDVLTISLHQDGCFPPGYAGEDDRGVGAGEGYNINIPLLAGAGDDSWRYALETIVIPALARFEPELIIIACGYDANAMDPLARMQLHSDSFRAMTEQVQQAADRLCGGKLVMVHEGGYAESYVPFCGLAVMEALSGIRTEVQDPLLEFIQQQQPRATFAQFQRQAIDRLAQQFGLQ

[7] = target: T4, BsAcuC (2c) (Bacillus subtilis, UniProt P39067); assay: Acetyl-polyamine deacetylase assay; assay type: biochemical; conditions: BsAcuC (2c) 3µM; single samples (replicates)
T4 construct: made in house; host or cells: E. coli BL21 (DE3)
T4 sequence (P39067 1-387): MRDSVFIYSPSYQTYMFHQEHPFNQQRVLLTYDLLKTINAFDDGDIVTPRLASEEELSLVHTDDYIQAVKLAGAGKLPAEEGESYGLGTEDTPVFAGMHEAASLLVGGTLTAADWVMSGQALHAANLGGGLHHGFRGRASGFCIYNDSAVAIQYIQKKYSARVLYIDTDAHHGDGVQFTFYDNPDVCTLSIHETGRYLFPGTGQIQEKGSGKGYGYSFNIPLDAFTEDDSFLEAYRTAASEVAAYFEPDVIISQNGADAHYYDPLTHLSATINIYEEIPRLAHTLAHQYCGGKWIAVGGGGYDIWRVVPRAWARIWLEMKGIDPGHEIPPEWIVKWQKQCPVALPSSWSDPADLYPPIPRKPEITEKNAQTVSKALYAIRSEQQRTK

[8] = test system: VcHdaH (5b); assay: Acetyl-polyamine deacetylase assay; assay type: biochemical, Vibrio cholerae; conditions: VcHdaH (5b) 6µM; single samples (replicates)
[9] = target: T5, LcApaH (3) (Legionella cherrii, UniProt A0A0W0SGS1); assay type: biochemical
Target sequence in this assay (A0A0W0SGS1 1-425): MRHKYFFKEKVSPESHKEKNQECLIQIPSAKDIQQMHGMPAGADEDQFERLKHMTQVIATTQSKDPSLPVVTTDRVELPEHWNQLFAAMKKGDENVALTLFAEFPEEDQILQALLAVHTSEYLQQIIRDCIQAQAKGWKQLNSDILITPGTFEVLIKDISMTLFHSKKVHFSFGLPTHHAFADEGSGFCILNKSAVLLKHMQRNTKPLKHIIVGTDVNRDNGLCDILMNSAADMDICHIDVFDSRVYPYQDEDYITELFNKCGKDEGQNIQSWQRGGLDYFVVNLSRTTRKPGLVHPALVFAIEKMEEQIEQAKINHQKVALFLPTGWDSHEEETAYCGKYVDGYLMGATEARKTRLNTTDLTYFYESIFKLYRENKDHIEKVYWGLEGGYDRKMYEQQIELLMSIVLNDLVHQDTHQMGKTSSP

[10] = target: T6, LpApaH (3) (Legionella pneumophila, UniProt A0A2S6EWV0); assay type: biochemical
Target sequence in this assay (A0A2S6EWV0 1-426): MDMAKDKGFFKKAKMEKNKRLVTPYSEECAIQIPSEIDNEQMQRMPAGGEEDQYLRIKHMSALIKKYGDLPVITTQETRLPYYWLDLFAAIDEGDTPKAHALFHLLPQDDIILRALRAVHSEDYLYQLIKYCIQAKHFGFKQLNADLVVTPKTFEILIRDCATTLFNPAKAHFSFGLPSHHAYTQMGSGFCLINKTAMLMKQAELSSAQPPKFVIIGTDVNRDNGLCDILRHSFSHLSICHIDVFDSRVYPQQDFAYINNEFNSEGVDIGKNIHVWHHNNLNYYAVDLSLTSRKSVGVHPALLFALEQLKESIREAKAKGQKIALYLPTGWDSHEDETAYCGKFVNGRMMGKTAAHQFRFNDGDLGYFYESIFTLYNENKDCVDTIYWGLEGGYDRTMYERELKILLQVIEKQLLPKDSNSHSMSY

[11] = test system: VsHdaH (1b); assay type: biochemical, Vibrio sp.
[12] = test system: RsPrpH (1b); assay: Substrate screening assay (acyl-peptide-AMC); assay type: biochemical, Rhizorhabdus sp.
[13] = target: T2, RwDmhA (1b); assay type: biochemical
[14] = target: T3, KpHdaH (1b); assay type: biochemical
[15] = target: T4, BsAcuC (2c); assay: Substrate screening assay (acyl-peptide-AMC); assay type: biochemical
Description: (§1) Experiments with SIRT2 and SIRT5 were supplemented with NAD^+ (500 µM). Thereafter, a solution of trypsin (25 µL, 5.0 mg/mL; final concentration of 2.5 mg/mL) was added, and the development of the assay was allowed to proceed for 90 min at room temperature before fluorescence analysis. […] To this end, a single category is given to all conversions >48% on the heatmap. […] For the H4-derived peptide LGKbio no positive control was available.

[16] = test system: VcHdaH (5b); assay type: biochemical, Vibrio cholerae
[17] = target: T1, PsApaH (4); assay type: biochemical
Description: as §1

[18] = target: T5, LcApaH (3); assay type: biochemical; remark: listed apart in the source
[19] = target: T6, LpApaH (3); assay type: biochemical; remark: listed apart in the source
[20] = test system: Controls; assay type: biochemical
[21] = test system: Controls; assay type: biochemical; remark: listed apart in the source
[22] = substrate screening, mean of two measurements
[23] = substrate screening, measurement 1 of two
[24] = substrate screening, measurement 2 of two
[25] = two measurements, single values

For `CC(=O)NCCCCNCCCN` [N8-acetyl-spermidine], the “acetate released, g/l” value [1] was 0.04138 g/L and 0.04164 g/L and 0.04191 g/L, the “acetate released, mM” value [1] was 0.6891 mM and 0.6935 mM and 0.6978 mM and the A1-A2 ([2]; absorbance difference between the two time points) was 0.581 and 0.564. The “(A1-A2)-B” value ([2]; absorbance difference minus mean blank) was 0.5395 and 0.5225, the “acetate released, g/l” value [3] was 0.002742 g/L and 0.003003 g/L and the “acetate released, mM” value [3] was 0.04565 mM and 0.05 mM. For the same compound, the “mM normalized to enzyme concentration” value [3] was 0.01522 mM and 0.01667 mM and 0.02536 mM, the “acetate released, g/l” value [4] was 0.01005 g/L and 0.01371 g/L and 0.01762 g/L and the “acetate released, mM” value [4] was 0.1674 mM and 0.2283 mM and 0.2935 mM. The “mM normalized to enzyme concentration” value [4] was 0.0558 mM and 0.07609 mM and 0.09783 mM, the “acetate released, g/l” value [5] was 0.005875 g/L and 0.0006527 g/L and the “acetate released, mM” value [5] was 0.09783 mM and 0.01087 mM. The “mM normalized to enzyme concentration” value [5] was 0.02246 mM and 0.03261 mM and 0.003623 mM, the “acetate released, g/l” value [6] was -0.006957 g/L and 0.01217 g/L and 0.008116 g/L and the “acetate released, mM” value [6] was -0.1158 mM and 0.2027 mM and 0.1352 mM. For the same compound, the “mM normalized to enzyme concentration” value [6] was -0.02317 mM and 0.04055 mM and 0.02703 mM, the “acetate released, g/l” value [7] was 0.006919 g/L and 0.003003 g/L and 0.003525 g/L and the “acetate released, mM” value [7] was 0.1152 mM and 0.05 mM and 0.0587 mM. The “mM normalized to enzyme concentration” value [7] was 0.03841 mM and 0.01667 mM and 0.01957 mM, the “acetate released, g/l” value [8] was 0.002219 g/L and 0.004047 g/L and 0.004569 g/L and the “acetate released, mM” value [8] was 0.03696 mM and 0.06739 mM and 0.07609 mM. For the same compound, the “mM normalized to enzyme concentration” value [8] was 0.006159 mM and 0.01123 mM and 0.01268 mM, the “acetate released, g/l” value [9] was 0.008058 g/L and 0.009115 g/L and the “acetate released, mM” value [9] was 0.1342 mM and 0.1518 mM. For the same compound, the “mM normalized to enzyme concentration” value [9] was 0.1342 mM and 0.1518 mM, the “acetate released, g/l” value [10] was 0.00515 g/L and 0.00674 g/L and the “acetate released, mM” value [10] was 0.09 mM and 0.11 mM. For the same compound, the “mM normalized to enzyme concentration” value [10] was 0.0429 mM and 0.0561 mM.
“QPKKdec (QPKK-{AMC}; not fully specified (residue 4); printed as QPKKdec; also: decanoyl-lysine (which Lys not given here); UniProt P04637 317-320, looked up, fragment)” was tested, and the “RFU means, VsHdaH (1b)” value ([11]; means of two measurements) was 82 RFU, the “RFU*2 means, VsHdaH (1b)” value ([11]; means of two measurements) was 164 RFU*2 and the “[AMC] (nM), VsHdaH (1b), means” value [11, 22] was 80.08 nM. For the same compound, the “[AMC] (nM), VsHdaH (1b)” value [11, 23] was 61.52 nM, the “[AMC] (nM), VsHdaH (1b)” value [11, 24] was 98.63 nM and the “RFU*2, VsHdaH (1b)” value [11, 25] was 126 RFU*2 and 202 RFU*2. For the same compound, the “RFU, VsHdaH (1b)” value [11, 25] was 63 RFU and 101 RFU, the “RFU means, RsPrpH (1b)” value ([12]; means of two measurements) was 37.5 RFU and the “RFU*2 means, RsPrpH (1b)” value ([12]; means of two measurements) was 75 RFU*2. The “[AMC] (nM), RsPrpH (1b), means” value [12, 22] was 36.62 nM, the “[AMC] (nM), RsPrpH (1b)” value [12, 23] was 31.25 nM and the “[AMC] (nM), RsPrpH (1b)” value [12, 24] was 41.99 nM. For the same compound, the “RFU*2, RsPrpH (1b)” value [12, 25] was 64 RFU*2 and 86 RFU*2, the “RFU, RsPrpH (1b)” value [12, 25] was 32 RFU and 43 RFU and the “RFU means, RwDmhA (1b)” value ([13]; means of two measurements) was 33 RFU. For the same compound, the “RFU*2 means, RwDmhA (1b)” value ([13]; means of two measurements) was 66 RFU*2, the “[AMC] (nM), RwDmhA (1b), means” value [13, 22] was 32.23 nM and the “[AMC] (nM), RwDmhA (1b)” value [13, 23] was 18.55 nM. The “[AMC] (nM), RwDmhA (1b)” value [13, 24] was 45.90 nM, the “RFU means, KpHdaH (1b)” value ([14]; means of two measurements) was 58 RFU and the “RFU*2 means, KpHdaH (1b)” value ([14]; means of two measurements) was 116 RFU*2. The “[AMC] (nM), KpHdaH (1b), means” value [14, 22] was 56.64 nM, the “[AMC] (nM), KpHdaH (1b)” value [14, 23] was 48.83 nM and the “[AMC] (nM), KpHdaH (1b)” value [14, 24] was 64.45 nM. The “RFU*2, KpHdaH (1b)” value [14, 25] was 100 RFU*2 and 132 RFU*2, the “RFU, KpHdaH (1b)” value [14, 25] was 50 RFU and 66 RFU and the “RFU means, BsAcuC (2c)” value ([15]; means of two measurements) was 1377 RFU. The “RFU*2 means, BsAcuC (2c)” value ([15]; means of two measurements) was 2754 RFU*2, the “[AMC] (nM), BsAcuC (2c), means” value [15, 22] was 1344.73 nM and the “RFU*2, BsAcuC (2c)” value [15, 25] was 3196 RFU*2 and 2312 RFU*2. For the same compound, the “RFU means, VcHdaH (5b)” value ([16]; means of two measurements) was 53.5 RFU, the “RFU*2 means, VcHdaH (5b)” value ([16]; means of two measurements) was 107 RFU*2 and the “[AMC] (nM), VcHdaH (5b), means” value [16, 22] was 52.25 nM. For the same compound, the “RFU means, PsApaH (4)” value ([17]; means of two measurements) was 97 RFU, the “RFU*2 means, PsApaH (4)” value ([17]; means of two measurements) was 194 RFU*2 and the “[AMC] (nM), PsApaH (4), means” value [17, 22] was 94.73 nM. For the same compound, the “[AMC] (nM), PsApaH (4)” value [17, 23] was 91.80 nM, the “[AMC] (nM), PsApaH (4)” value [17, 24] was 97.66 nM and the “RFU*2, PsApaH (4)” value [17, 25] was 200 RFU*2 and 188 RFU*2. For the same compound, the “RFU, PsApaH (4)” value [17, 25] was 100 RFU and 94 RFU, the “RFU means, LcApaH (3)” value [18] was 167 RFU and the “RFU*2, LcApaH (3)” value [18] was 294 RFU*2 and 374 RFU*2. The “RFU*2 means, LcApaH (3)” value [18] was 334 RFU*2, the “RFU, LcApaH (3)” value [18] was 147 RFU and 187 RFU and the “[AMC] (nM), LcApaH (3)” value [18] was 143.55 nM and 182.62 nM. For the same compound, the “[AMC] (nM), LcApaH (3), means” value [18] was 163.09 nM, the “RFU means, LpApaH (3)” value [19] was 175 RFU and the “RFU*2, LpApaH (3)” value [19] was 316 RFU*2 and 384 RFU*2. The “RFU*2 means, LpApaH (3)” value [19] was 350 RFU*2, the “RFU, LpApaH (3)” value [19] was 158 RFU and 192 RFU and the “[AMC] (nM), LpApaH (3)” value [19] was 154.30 nM and 187.50 nM. For the same compound, the “[AMC] (nM), LpApaH (3), means” value [19] was 170.90 nM, the “RFU means, controls” value [20] was 16210.5 RFU and the “RFU*2, controls” value [20] was 29980 RFU*2 and 34862 RFU*2. For the same compound, the “RFU*2 means, controls” value [20] was 32421 RFU*2, the “RFU, controls” value [20] was 14990 RFU and 17431 RFU and the “[AMC] (nM), controls, means” value [21] was 15830.57 nM.
